Test results published in patent US9770467B2, “Compositions and methods for cancer immunotherapy” (THE JOHNS HOPKINS UNIVERSITY, priority 2012, dated 2017).

Assays:
primary human PBMCs = test: IFN-α levels in primary human PBMCs by Cytometric Bead Array; assay type: cell-based; conditions: 50 μM, Effectene transfection, 24 hours; fifteen donors
Protocol: To determine the levels of IFN-α as a signature of CDN potency to activate innate immunity, 1×10^6 primary human PBMCs isolated from fifteen independent human donors were incubated in a 96 well U bottom plate for 30 min at 37° C., 5% CO2 with 50 μM of c-di-GMP (CDG), 1 μg/mL of Interferon Stimulatory DNA (ISD), or 4 μg/mL of Poly (I:C) utilizing Effectene transfection reagent (Qiagen) to transfer the molecules into the PBMC. ISD (Interferon Stimulating DNA) is TLR independent (Stetston, D. B. et. al. Immunity 24, 93-103, January 2006) and signals through cGAS, and is thus STING-dependent, while Poly (I:C) can signal through both TLR3 and RIG-I pathways, and are thus STING-independent. After 30 minutes, the cells were washed and replaced with RPMI media containing 10% FBS and incubated at 37° C., 5% CO2. After 24 hours incubation IFN-α levels were determined by Cytometric Bead Array (CBA, BD Biosciences) (FIG. 8).

STING = target: T1, STING (Mus musculus, UniProt Q3TBT3); conditions: cited from earlier work
T1 sequence (Q3TBT3 138-378 limits assumed): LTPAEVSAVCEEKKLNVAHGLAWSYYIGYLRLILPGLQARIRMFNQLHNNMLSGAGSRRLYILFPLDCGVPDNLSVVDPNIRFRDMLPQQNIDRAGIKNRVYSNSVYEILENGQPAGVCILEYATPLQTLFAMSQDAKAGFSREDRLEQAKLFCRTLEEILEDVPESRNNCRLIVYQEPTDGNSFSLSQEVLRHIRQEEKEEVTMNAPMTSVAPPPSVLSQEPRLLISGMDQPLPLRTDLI

Structure (SMILES): Nc1nc2c(ncn2[C@@H]2O[C@@H]3COP(=O)(O)O[C@H]4[C@@H](O)[C@H](n5cnc6c(=O)[nH]c(N)nc65)O[C@@H]4COP(=O)(O)O[C@H]3[C@H]2O)c(=O)[nH]1 [cyclic-di-GMP, cyclic diguanylate monophosphate]
- activation of innate immunity (IFN-α levels) (primary human PBMCs): activates innate immunity
- binding to STING (STING): binds directly
